# Assay results as given in patent US20120232025A1, “SAFENER DRUG COMBINATIONS FOR USE WITH NMDA […]” (priority 2010, published 2012).
# Read-outs that look alike come from different tables or passages of the source.
# Tests used:
# [1] = as an anesthetic; cited from earlier work
# [2] = system: psychotomimetic effects; conditions: cited from earlier work
# [3] = system: neurotoxic side effects of MK-801 or phencyclidine; conditions: cited from earlier work
# [4] = system: cerebrocortical neurons; assay: vacuole formation / neurotoxic damage in rat brain after NMDA antagonist administration; conditions: for vacuole-forming ED100 dosage: intraperitoneal injection, aging female rats, vacuole response in 100% of animals; for potency relative to MK-801 (from ED100 numbers): vacuole formation / NMDA receptor blocker ranking, fraction of MK-801 potency
# Source text: First, that dosage is based on intraperitoneal injection. […] This is a simple, quick, and convenient mode of injection, and it is widely used in research. If desired, intravenous injection in rats can be performed by using the tail vein, but that is slower, more tedious, more difficult, and more prone to experimental error.
# This runs contrary to most types of drug tests on rats, in which females tend to be avoided, because of potentially uncontrolled variables created by reproductive hormones. Most female rats that have been used, in tests done to date, are retired breeders, with ages of about 7 months or more.
# For convenience, to avoid having to use subscript fonts or notations, terms such as […] also can be written as ED-100, or simply as […].
# Whenever a term such as ED100 is being used, it requires an understanding of any essential factors that should be known by any researchers who might try to perform similar tests. In this situation, researchers would need to know the route of administration (intraperitoneal injection), and the types of animals used to determine the ED100 level (i.e., aging female rats).
# [5] = system: neuropathic pain; conditions: cited from earlier work
# [6] = system: cerebrocortical neurons; conditions: rats, persistent administration of the NMDA antagonist; cited from earlier work
# [7] = system: depressive symptoms; conditions: cited from earlier work
# [8] = system: neuropathic pain; assay: animal models of neuropathic pain; assay type: in vivo
# [9] = system: neurotoxic side effects of MK-801 or phencyclidine; assay: safener protection against neurotoxic side effects (vacuole formation) of NMDA antagonists; assay type: in vivo, rat
# [10] = system: neuropathic pain; conditions: cited from earlier work; remark: listed apart in the source
# [11] = system: excitotoxic neurodegeneration; assay: standard animal models of excitotoxic neurodegeneration; assay type: in vivo; conditions: only at very high doses that cause severe functional and behavioral disturbances
# Source text: However, it may well be that such concerns, by the Applicants, are not especially serious or acute, in view of the relatively low dosages of memantine that are actually being administered to Alzheimer patients. The Applicants have tested memantine, in animals, to measure and quantify its ability to protect against excitotoxic neurodegeneration, using several standard animal models that are used to test and measure excitotoxic neurodegeneration. […] Therefore, it is very unlikely that memantine is being administered, to Alzheimer patients, at dosages that are actually high enough to prevent excitotoxic neurodegeneration, since the dosages being used in human patients are not causing the types of observable functional disturbances that have been seen when anti-excitotoxic dosages are administered.
# [12] = system: Alzheimer's disease; conditions: cited from earlier work
compound,measurement,setting,value
CN[C@]1(c2ccccc2Cl)CCCCC1=O [S-ketamine],anesthetic potency relative to R-ketamine,[1],about twice as potent
Nc1nnc(-c2cccc(Cl)c2Cl)c(N)n1 [lamotrigine],psychotomimetic effects of NMDA antagonists in humans,[2],suppressed or prevented
same,neurotoxic effects of NMDA antagonists in animals,[3],suppressed or prevented
c1ccc(C2(N3CCCCC3)CCCCC2)cc1 [phencyclidine],vacuole-forming ED100 dosage,[4],4.0 mg/kg
same,potency relative to MK-801 (from ED100 numbers),[4],about 1/10
OC(CCN1CCCC1)(c1ccccc1)C1CCCCC1 (stereo not shown) [procyclidine],relief for neuropathic pain,"[5]; animal models, reported in journals",offers relief for neuropathic pain
[N-]=[N+]=O [nitrous oxide],time after which irreversible changes inside animal brains begin to manifest,[6],about 8 hours
Nc1nc2ccc(OC(F)(F)F)cc2s1 [riluzole],benefit in major depression,[7]; Zarate et al 2004,beneficial
CN(C)CCC=C1c2ccccc2CCc2ccccc21 [amitriptyline],neuropathic pain-relieving activity,"[8]; animal models, administered by itself",neuropathic pain-relieving activity
same,effect on neuropathic pain-relieving activity of memantine,[8]; coadministered with memantine,potentiated
same,safening activity against neurotoxic side effects of MK-801,"[9]; coadministered with MK-801, unpublished experiments",substantial safening activity
N=C(N)N/N=C/c1c(Cl)cccc1Cl [guanabenz],psychotomimetic effects of NMDA antagonists in humans,[2],suppressed or prevented
same,neurotoxic effects of NMDA antagonists in animals,[3],suppressed or prevented
CN1CCN(C2=Nc3cc(F)ccc3Cc3ccccc32)CC1 [fluperlapine],reduction of toxic side effects of MK-801 and PCP,[3]; tests on rats,reduce the toxic side effects
Clc1cccc(Cl)c1N=C1NCCN1 [clonidine],effect on MK-801's neuropathic pain-relieving activity,[5]; administered together with MK-801,potentiates
same,neuropathic pain relieving activity,[5]; alone,neuropathic pain relieving activity
same,psychotomimetic effects of NMDA antagonists in humans,[2],suppressed or prevented
same,neurotoxic effects of NMDA antagonists in animals,[3],suppressed or prevented
CNC1(c2ccccc2Cl)CCCCC1=O (racemic) [ketamine],potency relative to phencyclidine (from ED100 numbers),[4]; fraction of phencyclidine potency,about 1/10
same,vacuole-forming ED100 dosage,[4],40 mg/kg
same,potency relative to MK-801 (from ED100 numbers),[4],about 1/100
same,side effects,"[10]; continuous subcutaneous infusion, one patient (Backonja et al 1994)",intolerable cognitive and memory side effects
same,side effects,"[10]; single-dosage injections, six patients (Backonja et al 1994)",mild and well tolerated
same,side effects,[10]; subcutaneous injections over 7 days and nights (Eide et al 1995),intolerable side effects
same,relief from depressive symptoms,"[7]; intravenous infusion for 40 minutes, small group (Berman et al 2000)",transient but significant relief
same,relief from depressive symptoms,"[7]; prolonged subanesthetic intravenous infusion up to 4 days, 2 patients (Correll et al 2005)",rapid and lasting relief
same,time to relief from depressive symptoms after infusion,"[7]; single 40 minute intravenous infusion, treatment resistant depression (Zarate et al 2006b)",less than 2 hours
same,duration of remission of symptoms,"[7]; single 40 minute intravenous infusion, significant number of patients (Zarate et al 2006b)",up to a week
O=C(CCCN1CCC(O)(c2ccc(Cl)cc2)CC1)c1ccc(F)cc1 [haloperidol],safening potency compared with sigma-selective drugs,[3]; required substantially higher dosages,not as potent or effective
same,prevention of NMDA antagonist-induced vacuole formation,"[9]; test animals, given at the same time as the NMDA antagonist, clinically relevant dosages",could not prevent
CC12CC3CC(C)(C1)CC(N)(C3)C2 [memantine],protection against excitotoxic damage,[11],some level of protection against excitotoxic damage
same,improvement in depressive symptoms,"[7]; 20 mg/day, 8 weeks, severe chronic depression (Zarate et al 2006a)",no signs of improvement
same,further deterioration of cognitive function,[12]; Alzheimer patients,did not prevent further deterioration
same,global assessment of cognition and ability to manage daily activities,"[12]; low dose, middle-stage Alzheimer patients",transient and slight improvements
